The values below come from ChEMBL document CHEMBL1148003 (Bioorg Med Chem, 2007).

A short description of test [1]: Inhibition of jack bean alpha-D-mannosidase. More on the design: species or system Canavalia ensiformis.
Test [2] in a line: Inhibition of bovine kidney alpha-L-fucosidase. More on the design: species or system Bos taurus.
Test [3] is described as follows: Inhibition of Escherichia coli beta-D-galactosidase.
Test [4] can be described thus: Inhibition of green coffee bean alpha-D-galactosidase.
The nature of test [5]: Inhibition of almond beta-D-glucosidase. More on the design: species or system Prunus dulcis.
A short description of test [6]: Inhibition of Aspergillus wentii beta-D-mannosidase.
In a further test the test system is Escherichia coli. As to the kind of experiment: Inhibition of Escherichia coli beta-D-galactosidase at 1 mM.
Test [7] is described as follows: Inhibition of green coffee bean alpha-D-galactosidase at 1 mM.
Test [8] concerns the target T1, Glucoamylase, intracellular sporulation-specific (Saccharomyces cerevisiae S288c) (UniProt P08019).
T1 sequence (whole entry): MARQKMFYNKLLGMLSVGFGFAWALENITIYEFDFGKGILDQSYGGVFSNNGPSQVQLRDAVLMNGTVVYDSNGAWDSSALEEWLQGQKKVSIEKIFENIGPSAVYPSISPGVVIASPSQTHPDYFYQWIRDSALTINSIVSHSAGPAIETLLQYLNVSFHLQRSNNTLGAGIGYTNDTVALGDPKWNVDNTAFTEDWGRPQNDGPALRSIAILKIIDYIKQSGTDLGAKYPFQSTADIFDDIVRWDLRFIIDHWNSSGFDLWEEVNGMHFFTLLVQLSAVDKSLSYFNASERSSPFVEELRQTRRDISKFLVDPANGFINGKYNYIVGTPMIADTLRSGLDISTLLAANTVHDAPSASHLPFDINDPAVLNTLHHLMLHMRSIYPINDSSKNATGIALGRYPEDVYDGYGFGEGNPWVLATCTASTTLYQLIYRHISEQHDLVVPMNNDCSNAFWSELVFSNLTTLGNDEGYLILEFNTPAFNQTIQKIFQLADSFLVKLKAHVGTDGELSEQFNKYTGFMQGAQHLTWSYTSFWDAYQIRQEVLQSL
The experiment in a line: Inhibition of yeast alpha-D-glucosidase at 1 mM.

Test [9] in a line: Inhibition of snail beta-D-mannosidase. On the set-up: species or system Cornu aspersum.
Another test has as its system Cornu aspersum. As to the kind of experiment: Inhibition of snail beta-D-mannosidase at 1 mM.
The species entered for the next test is Bos taurus. The experiment in a line: Inhibition of bovine kidney alpha-L-fucosidase at 1 mM.

Consider `O[C@@H]1C=NC[C@@H]1O`, for which the Ki (commonly the equilibrium dissociation constant of an inhibitor or competing ligand from its target) stood at 2 µM in [1], 0.2 µM in test [3], 0.2 µM in test [4] and 0.3 µM in test [5]. Half-maximal inhibition in test [2] (IC50) required 1000 µM.
On to `OC[C@H]1NC[C@@H](O)[C@@H]1O`, for which the IC50 (usually the midpoint of a concentration-inhibition curve) in test [1] is 200 µM; in test [5], 500 µM.
Turning to `OC[C@H]1NC(O)[C@H](O)[C@@H](O)[C@@H]1O` (stereo not given in full) [NOJIRIMYCIN], the results for the Ki in test [1], in [6] and in test [5] were 500 µM, 900 µM and 0.9 µM, respectively.
Take `O[C@@H]1CN=C[C@@H]1O`: the Ki in [1] was 20 µM; in [2], 3 µM. The molecule further gave an IC50 in [3] of 1000 µM.
For `O[C@@H]1CNC[C@H]1O`, the values for the inhibition (in the test with Escherichia coli; in test [7]; in test [8]) were 20%, 27% and 43%, respectively.
With `OC[C@H]1N=C[C@@H](O)[C@@H]1O` [NECTRISINE], the 50% inhibitory concentration (IC50) in test [1] was 3 µM; in [5] it was 2.2 µM. In addition, in test [6], the affinity, expressed as Ki, was 42 µM.
`O[C@H]1[C@H](O)CN[C@H]1O`: the IC50 in [9] was 1000 µM; in test [5] it was 200 µM. Also, the inhibition (usually the change of the read-out against control, counted positive when it falls) in the test on Cornu aspersum stood at 50%; in [7] it was 40%. The inhibition constant Ki in test [1] is 5 µM.
With `O=S(=O)(O)C1NC[C@@H](O)[C@@H]1O` (stereo not given in full), the Ki in test [1] turned out to be 5 µM. Also, 180 µM corresponded to half-maximal inhibition in test [5] (IC50).
Consider `O=S(=O)(O)C1NC[C@H](O)[C@H]1O` (stereo not given in full), for which the inhibition in the test with Cornu aspersum was determined as 28%; in the test filed under Bos taurus, 23%; in [7] it was 20%. The molecule also registered an IC50 in test [5] of 2000 µM.
